In patent publication US20120232158A1, “METHODS OF TREATING HYPERACIDIC DISORDERS” (Yale Univeristy, priority 2008, published 2012):
“Also recorded” adds a separate entry of the source.

Tests used:
Format in all cases: cell-based
[1] = test system: gastric glands (gastric parietal cells); assay: Acid secretion by superfused gastric glands isolated from control Casr+/+; Gcm2−/− mice (rate of recovery after acid load, BCECF); details: FIG. 1
Protocol: (§1) Male (Casr^+/+; Gcm2^−/−) or CaSR knockout (Casr^−/−; Gcm2^−/−) mice weighing 22-27 grams (upper panel) or male Sprague-Dawley rats weighing 220-275 grams (lower panel) were fasted with ad lib access to water for 18 hours prior to experimentation. The animals were exposed to an overdose of isofluorane and the stomach was removed by a total gastrectomy. The corpus was removed from the stomach and sectioned at 4° C. All mice were generated at Yale University from a breeding colony. Male Sprague-Dawley rats were purchased from Charles River Laboratories Inc. (Wilmington, Mass.). All animals were cared for according to the standard protocols of the Yale University Animal Care and Use Committee.
(§2) The HEPES-Ringer solution contained (in mmol/L): NaCl 125; KCl 5; MgCl2 0.5; HEPES 22, CaCl2 0.1 or 1.6; glucose 10, pH=7.4. […]
(§3) Individual gastric glands were hand dissected and transferred to the stage of an inverted microscope where they were loaded with the intracellular pH marker BCECF. […] The rate of recover was then calculated in the presence or absence of the calcimimetic Compound A at either 10 or 100 nM concentration.
(§4) The rate of recovery in the absence of Na was recorded for each parietal cell and then summated and the mean ±SEM of the data for each gland and then for each animal determined. […] The recovery rates are determined as the rate of recovery following an acid load. […]

[2] = test system: gastric glands (gastric parietal cells); assay: Acid secretion by superfused gastric glands isolated from Sprague-Dawley rats (rate of recovery after acid load, BCECF); details: FIG. 1
Protocol: as §1, §2, §3, §4

[3] = test system: gastric glands (gastric parietal cells); assay: Acid secretion by superfused gastric glands of CaSR knockout (Casr−/−; Gcm2−/−) mice; details: glands from Casr−/−, FIG. 2; for acid secretion stimulated by natural secretagogue: 100 μM, Gcm2−/− mice
Protocol: as §1
The HEPES-Ringer solution contained (in mmol/L): NaCl 125; KCl 5; MgCl2 0.5; HEPES 22, CaCl2 0.1 or 1.6; glucose 10, pH=7.4. The solution was bubbled with 100% O2. 2′,7′-bis′(carboxyethyl)-5-(6)-carboxyfluorescein (BCECF) from Invitrogen (Seattle, Wash., USA) and stock solutions were prepared in dimethyl sulphoxide (DMSO).
(§5) Individual gastric glands were hand dissected and transferred to the stage of an inverted microscope where they were loaded with the intracellular pH marker BCECF. Once loaded with the dye the glands were superfused with normal HEPES Ringer solution at 37° C. and at a pH of 7.4 for 5 minutes. The glands were then challenged with 20 mM NH4Cl and 0 mM Na to induce an acid load within the cell. The rate of recover was then calculated in the presence or absence of the calcimimetic Compound A at either 10 or 100 nM concentration.
(§6) The rate of recovery in the absence of Na was recorded for each parietal cell and then summated and the mean ±SEM of the data for each gland and then for each animal determined. […] The recovery rates are determined as the rate of recovery following an acid load. This rate determines how fast the cell can extrude protons and provides a measure of the activity of the gastric H,K-ATPase proton pump.
Gastric acid secretion is measured in Casr^−/−; Gcm2^−/− mice that lack a functional CaSR.

[4] = test system: gastric glands (gastric parietal cells); assay: Secretagogue (histamine) induced acid secretion in superfused gastric glands from Sprague-Dawley rats; details: rat glands treated with secretagogue (histamine) first (bars B, C, D); FIG. 6
Protocol: The HEPES-Ringer solution contained (in mmol/L): NaCl 125; KCl 5; MgCl2 0.5; HEPES 22, CaCl2 0.1 or 1.6; glucose 10, pH=7.4. The solution was bubbled with 100% O2. 2′,7′-bis′(carboxyethyl)-5-(6)-carboxyfluorescein (BCECF) from Invitrogen (Seattle, Wash., USA) and stock solutions were prepared in dimethyl sulphoxide (DMSO). […]

[5] = test system: gastric glands (gastric parietal cells); assay: Secretagogue (acetyl choline) induced acid secretion in mouse gastric glands with functional CaSR; details: 100 μM acetyl choline, calcilytic at 10 or 100 nM, mice with functional CaSR (Casr+/+; Gcm2−/−), FIG. 3
[6] = test system: gastric glands (gastric parietal cells); assay: Acid secretion by superfused gastric glands from mice with constitutively active gastric H,K-ATPase proton pump; details: mice with functional CaSR and constitutively active H,K-ATPase; FIG. 5
Protocol: as §5, §6
These mice have a mutation in the gastric H,K-ATPase proton pump that renders the pump constitutively active.

## COc1cccc(C(C)NCCCc2ccccc2Cl)c1 (stereo not drawn) [Compound A, 3-(2-chlorophenyl)-N-(1-(3-(methyloxy)phenyl)ethyl)-1-propanamine]
[1]
  concentration dependence of the effect on acid secretion: concentration dependent
[2]
  concentration dependence of the effect on acid secretion: concentration dependent
[3]; Gcm2−/− mice lacking functional CaSR
  effect on basal acid secretion: unable to increase acid secretion
[4]
  effect on secretagogue induced acid secretion: decreased acid secretion

## CC(C)(Cc1ccc2ccccc2c1)NCC(O)COc1cccc(Cl)c1C#N (stereo not drawn) [Compound B, 2-chloro-6-(2-hydroxy-3-(2-methyl-1-(naphthalen-2-yl)propan-2-ylamino)propoxy)benzonitrile]
[5]
  inhibition of secretagogue induced acid secretion: inhibition of acid secretion in a concentration dependent fashion
[5]; listed as compound B
  inhibition of secretagogue induced acid secretion: reduces acid secretion in a dose-dependent manner
[6]
  inhibition of acid secretion: suppresses gastric acid secretion in a concentration-dependent fashion; also recorded: reduce acid secretion

## C[N+](C)(C)CCOC(N)=O [carbachol]
[3]
  acid secretion stimulated by natural secretagogue: able to increase acid secretion; also recorded: increases acid secretion

## NCCc1c[nH]cn1 [histamine]
[3]
  acid secretion stimulated by natural secretagogue: able to increase acid secretion; also recorded: increases acid secretion
